From patent US8986419B2, “Mixture for treating fertilizers” (SKW Stickstoffwerke Piesteritz GmbH, priority 2010, dated 2015)
Values after ≈ are worked out from the molar mass of the structure shown. Values joined by “and” are separate entries in the source; they are usually repeats but may differ in a detail not shown here. Identical values can stand only once.

Assays:
[1] = Laboratory test on the volatility of 3-methylpyrazole, storage in open crystallising dishes at room temperature; assay type: physicochemical; conditions: open crystallising dish diameter 5 cm
[2] = Simulated open storage test of treated urea granules, TZ/3-MP content determined analytically; assay type: physicochemical; conditions: storage period 6 weeks, 9 kg in open-topped vessels, ambient temperature and humidity; listed as pure 3-methylpyrazole sprayed on
Procedure: The urea granules enclosed in the cement mixer according to Example 8 were stored in a quantity of 9 kg to simulate storage in a pile in open-topped cylindrical vessels (height 30 cm, diameter 30 cm) at ambient temperature and humidity. After a storage period of 2, 4 and 6 weeks average samples were taken and the nitrification inhibitor TZ/3-MP content was determined analytically.
Enclosed urea granules according to Example 9 were stored in the same way in parallel, and average samples taken from these were investigated analytically.

[3] = aqueous formulation; cited from earlier work

| Active substance losses in relation to the starting value, MP (%) [2] | SMILES | loss in % ([1]; storage time 1 day) | loss in % ([1]; storage time 2 days) | loss in % ([1]; storage time 3 days) | loss in % ([1]; storage time 6 days) | loss in % ([1]; storage time 12 days) | solubility [3] |
| --- | --- | --- | --- | --- | --- | --- | --- |
| 89 ^1% and 89% | Cc1cc[nH]n1 [Example 3-MP, 3-methylpyrazole] | 12% | 26% | 40% | 87% | 100% | – |
| – | N#CN=C(N)N [dicyandiamide, Dicyandiamide] | – | – | – | – | – | 32 mg/mL (≈ 381 mM) |
| – | c1nc[nH]n1 [TZ, 1,2,4-triazole] | 0% | 0% | 1% | 2% | 2% | – |
